Active and inactive are the calls of the source. The rule behind the calls is not given here.
How the values were obtained:
[1] = Hemolytic activity in human RBC at 100 ug/ml incubated for 1 hr; format: toxicity, cell-based, Erythrocyte; conditions: human red blood cells (erythrocytes), at 100 µg/mL, read-out: Activity
Pseudomonas aeruginosa [2] = assay: Antibacterial activity against Pseudomonas aeruginosa incubated for 16 to 20 hrs; format: functional; conditions: time 16-20 hrs
Klebsiella pneumoniae [3] = assay: Antibacterial activity against NDM Klebsiella pneumoniae incubated for 16 to 20 hrs; format: functional; conditions: time 16-20 hrs
Aeromonas hydrophila = assay: Antibacterial activity against Aeromonas hydrophila incubated for 16 to 20 hrs; format: functional; conditions: time 16-20 hrs
Edwardsiella tarda [4] = assay: Antibacterial activity against Edwardsiella tarda incubated for 16 to 20 hrs; format: functional; conditions: time 16-20 hrs
Klebsiella oxytoca [5] = assay: Antibacterial activity against Klebsiella oxytoca incubated for 16 to 20 hrs; format: functional; conditions: time 16-20 hrs
Streptococcus iniae [6] = assay: Antibacterial activity against Streptococcus iniae incubated for 16 to 20 hrs; format: functional; conditions: time 16-20 hrs
Candida tropicalis [7] = assay: Antifungal activity against Candida tropicalis incubated for 16 to 20 hrs; format: functional; conditions: time 16-20 hrs
Nakaseomyces glabratus [8] = assay: Antifungal activity against Candida glabrata incubated for 16 to 20 hrs; format: functional; conditions: time 16-20 hrs
Vibrio vulnificus [9] = assay: Antibacterial activity against Vibrio vulnificus V2 incubated for 16 to 20 hrs; format: functional; conditions: time 16-20 hrs
Vibrio vulnificus [10] = assay: Antibacterial activity against Vibrio vulnificus V3 incubated for 16 to 20 hrs; format: functional; conditions: time 16-20 hrs
Klebsiella pneumoniae [11] = assay: Bactericidal activity against NDM Klebsiella pneumoniae incubated overnight; format: functional
Escherichia coli [12] = assay: Bactericidal activity against Escherichia coli incubated overnight; format: functional
Vibrio harveyi = assay: Bactericidal activity against Vibrio harveyi incubated overnight; format: functional
Edwardsiella tarda [13] = assay: Bactericidal activity against Edwardsiella tarda incubated overnight; format: functional
Klebsiella oxytoca [14] = assay: Bactericidal activity against Klebsiella oxytoca incubated overnight; format: functional
Streptococcus agalactiae [15] = assay: Bactericidal activity against Streptococcus agalactiae incubated overnight; format: functional
Enterococcus faecium = assay: Bactericidal activity against Enterococcus faecium incubated overnight; format: functional
Candida tropicalis [16] = assay: Fungicidal activity against Candida tropicalis incubated overnight; format: functional
Nakaseomyces glabratus [17] = assay: Fungicidal activity against Candida glabrata incubated overnight; format: functional
Vibrio vulnificus [18] = assay: Bactericidal activity against Vibrio vulnificus V2 incubated overnight; format: functional
[19] = Cytotoxicity against human HaCaT cells incubated for 24 hrs by MTS assay; format: toxicity, cell-based; conditions: read-out: LD50
Vibrio vulnificus [20] = assay: Antibiofilm activity against Vibrio vulnificus 204 assessed as inhibition of biofilm formation at 25 to 100 ug/ml incubated for 24 hrs by crystal violet staining based assay; format: functional, organism-based; conditions: dose 25-100 µg/ml
Vibrio vulnificus [21] = assay: Antibiofilm activity against Vibrio vulnificus V1 assessed as inhibition of biofilm formation at 25 to 100 ug/ml incubated for 24 hrs by crystal violet staining based assay; format: functional, organism-based; conditions: dose 25-100 µg/ml
Vibrio vulnificus [22] = assay: Antibiofilm activity against Vibrio vulnificus V3 assessed as inhibition of biofilm formation at 25 to 100 ug/ml incubated for 24 hrs by crystal violet staining based assay; format: functional, organism-based; conditions: dose 25-100 µg/ml
Vibrio vulnificus [23] = assay: Antibiofilm activity against Vibrio vulnificus V2 assessed as inhibition of biofilm formation at 50 to 100 ug/ml incubated for 24 hrs by crystal violet staining based assay; format: functional, organism-based; conditions: dose 50-100 µg/ml
Vibrio vulnificus [24] = assay: Antibiofilm activity against Vibrio vulnificus V3 assessed as inhibition of biofilm formation at 50 to 100 ug/ml incubated for 24 hrs by crystal violet staining based assay; format: functional, organism-based; conditions: dose 50-100 µg/ml
Vibrio vulnificus [25] = assay: Antibiofilm activity against Vibrio vulnificus 204 assessed as inhibition of biofilm formation at 25 ug/ml incubated for 24 hrs by crystal violet staining based assay; format: functional, organism-based; conditions: dose 25.0 µg/ml
Cell membrane [26] = assay: Induction of outer membrane lysis in Vibrio vulnificus at 100 ug/ml by NPN-dye based fluorescence analysis; format: subcellular; conditions: dose 100.0 µg/ml
Cell membrane [27] = assay: Induction of membrane depolarization in Vibrio vulnificus at 100 ug/ml by DiBAC4(3) dye based fluorescence analysis; format: subcellular; conditions: dose 100.0 µg/ml
Cell membrane [28] = assay: Induction of membrane deformation in Vibrio vulnificus at 1 to 2 times MIC incubated for 30 mins by SEM analysis; format: subcellular
Cell membrane [29] = assay: Induction of membrane lysis in Vibrio vulnificus at 1 time MIC incubated for 1 hr by TEM analysis; format: subcellular
Vibrio vulnificus [30] = assay: Antibacterial activity against Vibrio vulnificus treated with preheated compounds; format: functional, organism-based
Vibrio vulnificus [31] = assay: Antibacterial activity against Vibrio vulnificus in presence of proteinase K; format: functional, organism-based
Vibrio vulnificus [32] = assay: Antibacterial activity against Vibrio vulnificus in presence of pancreatin; format: functional, organism-based
Vibrio vulnificus [33] = assay: Antibacterial activity against Vibrio vulnificus in presence of 1 to 10 ug/ml pepsin; format: functional, organism-based
Vibrio vulnificus [34] = assay: Antibacterial activity against Vibrio vulnificus 204 in presence of human serum; format: functional, organism-based
Klebsiella pneumoniae [35] = assay: Antibacterial activity against Klebsiella pneumoniae expressing NDM-1 in presence of human serum; format: functional, organism-based
Streptococcus agalactiae [36] = assay: Synergistic antibacterial activity against Streptococcus agalactiae in presence of doxycycline by checkerboard microtiter plate assay; format: functional
Acinetobacter baumannii [37] = assay: Antibacterial activity against Acinetobacter baumannii; format: functional
Streptococcus iniae [38] = assay: Synergistic antibacterial activity against Streptococcus iniae in presence of doxycycline by checkerboard microtiter plate assay; format: functional
Acinetobacter baumannii [39] = assay: Synergistic antibacterial activity against Acinetobacter baumannii in presence of doxycycline by checkerboard microtiter plate assay; format: functional
Vibrio vulnificus [40] = assay: Synergistic antibacterial activity against Vibrio vulnificus in presence of doxycycline by checkerboard microtiter plate assay; format: functional
Streptococcus agalactiae [41] = assay: Synergistic antibacterial activity against Streptococcus agalactiae in presence of meropenem by checkerboard microtiter plate assay; format: functional
Streptococcus iniae [42] = assay: Additive antibacterial activity against Streptococcus iniae in presence of meropenem by checkerboard microtiter plate assay; format: functional
Klebsiella aerogenes [43] = assay: Synergistic antibacterial activity against Enterobacter aerogenes in presence of meropenem by checkerboard microtiter plate assay; format: functional
Vibrio vulnificus [44] = assay: Synergistic antibacterial activity against Vibrio vulnificus assessed as doxycycline MIC by checkerboard microtiter plate assay; format: functional
Streptococcus iniae [45] = assay: Additive antibacterial activity against Streptococcus iniae assessed as meropenem MIC by checkerboard microtiter plate assay; format: functional
Acinetobacter baumannii [46] = assay: Additive antibacterial activity against Acinetobacter baumannii assessed as meropenem MIC by checkerboard microtiter plate assay; format: functional
Pseudomonas aeruginosa [47] = assay: Additive antibacterial activity against Pseudomonas aeruginosa assessed as meropenem MIC by checkerboard microtiter plate assay; format: functional
Vibrio vulnificus [48] = assay: Synergistic antibacterial activity against Vibrio vulnificus assessed as meropenem MIC by checkerboard microtiter plate assay; format: functional
Escherichia coli [49] = assay: Synergistic antibacterial activity against Escherichia coli assessed as meropenem MIC by checkerboard microtiter plate assay; format: functional
Streptococcus agalactiae [50] = assay: Synergistic antibacterial activity against Streptococcus agalactiae assessed as fractional inhibitory concentration in presence of meropenem by checkerboard microtiter plate assay; format: functional
Acinetobacter baumannii [51] = assay: Additive antibacterial activity against Acinetobacter baumannii assessed as fractional inhibitory concentration in presence of meropenem by checkerboard microtiter plate assay; format: functional
Pseudomonas aeruginosa [52] = assay: Additive antibacterial activity against Pseudomonas aeruginosa assessed as fractional inhibitory concentration in presence of meropenem by checkerboard microtiter plate assay; format: functional
Escherichia coli [53] = assay: Synergistic antibacterial activity against Escherichia coli assessed as fractional inhibitory concentration in presence of meropenem by checkerboard microtiter plate assay; format: functional
Klebsiella aerogenes [54] = assay: Synergistic antibacterial activity against Enterobacter aerogenes assessed as fractional inhibitory concentration in presence of meropenem by checkerboard microtiter plate assay; format: functional
[55] = Dermal toxicity in BALB/c mouse assessed as irritation at 125 mg/kg, TOPp measured after 48 hrs; format: organism-based; conditions: in vivo, topical_or_ocular

## H-KKCIAKAILKKAKKLLKKLVNP-OH
[1]
  hemolysis at 1 h, 100 ug/ml: 5.5%
Pseudomonas aeruginosa [2]
  MIC: 25 µg/mL
Klebsiella pneumoniae [3]
  MIC: 25 µg/mL
Aeromonas hydrophila
  MIC: > 100 µg/mL
Edwardsiella tarda [4]
  MIC: > 100 µg/mL
Klebsiella oxytoca [5]
  MIC: 50 µg/mL
Streptococcus iniae [6]
  MIC: < 1.56 µg/mL
Candida tropicalis [7]
  MIC: 100 µg/mL
Nakaseomyces glabratus [8]
  MIC: > 100 µg/mL
Vibrio vulnificus [9]
  MIC: 12.5 µg/mL
Vibrio vulnificus [10]
  MIC: 12.5 µg/mL
Klebsiella pneumoniae [11]
  MBC: 25 µg/mL
Escherichia coli [12]
  MBC: 12.5 µg/mL
Vibrio harveyi
  MBC: 25 µg/mL
Edwardsiella tarda [13]
  MBC: > 100 µg/mL
Klebsiella oxytoca [14]
  MBC: 50 µg/mL
Streptococcus agalactiae [15]
  MBC: 3.12 µg/mL
Enterococcus faecium
  MBC: > 100 µg/mL
Candida tropicalis [16]
  MFC: > 100 µg/mL
Nakaseomyces glabratus [17]
  MFC: > 100 µg/mL
Vibrio vulnificus [18]
  MBC: 12.5 µg/mL
[19]
  CC50 at 24 h: > 100 µg/mL
Vibrio vulnificus [20]
  Activity: Active
Vibrio vulnificus [21]
  Activity: Active
Vibrio vulnificus [22]
  Activity: Active
Vibrio vulnificus [23]
  Activity: Active
Vibrio vulnificus [24]
  Activity: Active
Vibrio vulnificus [25]
  Activity: inactive
Cell membrane [26]
  Activity: Active
Cell membrane [27]
  Activity: Active
Cell membrane [28]
  Activity: Active
Cell membrane [29]
  Activity: Active
Vibrio vulnificus [30]
  Activity: Active
Vibrio vulnificus [31]
  Activity: Active
Vibrio vulnificus [32]
  Activity: Active
Vibrio vulnificus [33]
  Activity: Active
Vibrio vulnificus [34]
  Activity: Active
Klebsiella pneumoniae [35]
  Activity: Active
Streptococcus agalactiae [36]
  MIC: 0.195 µg/mL
Acinetobacter baumannii [37]
  MIC: 3.12 µg/mL
Streptococcus iniae [38]
  MIC: 0.048 µg/mL
Acinetobacter baumannii [39]
  MIC: 0.048 µg/mL
Vibrio vulnificus [40]
  MIC: 0.195 µg/mL
Streptococcus agalactiae [41]
  MIC: 0.195 µg/mL
Streptococcus iniae [42]
  MIC: 0.048 µg/mL
Klebsiella aerogenes [43]
  MIC: 0.097 µg/mL
Vibrio vulnificus [44]
  MIC: 0.006 µg/mL
Streptococcus iniae [45]
  MIC: 0.195 µg/mL
Acinetobacter baumannii [46]
  MIC: 0.195 µg/mL
Pseudomonas aeruginosa [47]
  MIC: 0.195 µg/mL
Vibrio vulnificus [48]
  MIC: 0.003 µg/mL
Escherichia coli [49]
  MIC: 0.001 µg/mL
Streptococcus agalactiae [50]
  FIC: 0.07
Acinetobacter baumannii [51]
  FIC: 0.51
Pseudomonas aeruginosa [52]
  FIC: 0.53
Escherichia coli [53]
  FIC: 0.07
Klebsiella aerogenes [54]
  FIC: 0.14
[55]
  Activity: Non-Toxic

## H-FKWKSVLKGVKGFVKGYF-OH
[1]
  hemolysis at 1 h, 100 ug/ml: 26.5%
Pseudomonas aeruginosa [2]
  MIC: 25 µg/mL
Klebsiella pneumoniae [3]
  MIC: 25 µg/mL
Aeromonas hydrophila
  MIC: > 100 µg/mL
Edwardsiella tarda [4]
  MIC: 50 µg/mL
Klebsiella oxytoca [5]
  MIC: 25 µg/mL
Streptococcus iniae [6]
  MIC: < 1.56 µg/mL
Candida tropicalis [7]
  MIC: 50 µg/mL
Nakaseomyces glabratus [8]
  MIC: > 100 µg/mL
Vibrio vulnificus [9]
  MIC: 12.5 µg/mL
Vibrio vulnificus [10]
  MIC: 12.5 µg/mL
Klebsiella pneumoniae [11]
  MBC: 25 µg/mL
Escherichia coli [12]
  MBC: 6.25 µg/mL
Vibrio harveyi
  MBC: > 100 µg/mL
Edwardsiella tarda [13]
  MBC: 50 µg/mL
Klebsiella oxytoca [14]
  MBC: 25 µg/mL
Streptococcus agalactiae [15]
  MBC: 3.12 µg/mL
Enterococcus faecium
  MBC: > 100 µg/mL
Candida tropicalis [16]
  MFC: 100 µg/mL
Nakaseomyces glabratus [17]
  MFC: > 100 µg/mL
Vibrio vulnificus [18]
  MBC: 12.5 µg/mL
[19]
  CC50 at 24 h: > 100 µg/mL
Vibrio vulnificus [20]
  Activity: Active
Vibrio vulnificus [21]
  Activity: Active
Vibrio vulnificus [22]
  Activity: Active
Vibrio vulnificus [23]
  Activity: Active
Vibrio vulnificus [24]
  Activity: Active
Vibrio vulnificus [25]
  Activity: inactive
Cell membrane [26]
  Activity: Active
Cell membrane [27]
  Activity: Active
Cell membrane [28]
  Activity: Active
Cell membrane [29]
  Activity: Active
Vibrio vulnificus [30]
  Activity: Active
Vibrio vulnificus [31]
  Activity: Active
Vibrio vulnificus [32]
  Activity: Active
Vibrio vulnificus [33]
  Activity: Active
Vibrio vulnificus [34]
  Activity: Active
Klebsiella pneumoniae [35]
  Activity: Active
Streptococcus agalactiae [36]
  MIC: 0.097 µg/mL
Acinetobacter baumannii [37]
  MIC: 3.12 µg/mL
Streptococcus iniae [38]
  MIC: 0.024 µg/mL
Acinetobacter baumannii [39]
  MIC: 0.048 µg/mL
Vibrio vulnificus [40]
  MIC: 0.097 µg/mL
Streptococcus agalactiae [41]
  MIC: 0.097 µg/mL
Streptococcus iniae [42]
  MIC: 0.024 µg/mL
Klebsiella aerogenes [43]
  MIC: 0.195 µg/mL
Vibrio vulnificus [44]
  MIC: 0.006 µg/mL
Streptococcus iniae [45]
  MIC: 0.195 µg/mL
Acinetobacter baumannii [46]
  MIC: 0.195 µg/mL
Pseudomonas aeruginosa [47]
  MIC: 0.195 µg/mL
Vibrio vulnificus [48]
  MIC: 0.003 µg/mL
Escherichia coli [49]
  MIC: 0.001 µg/mL
Streptococcus agalactiae [50]
  FIC: 0.07
Acinetobacter baumannii [51]
  FIC: 0.51
Pseudomonas aeruginosa [52]
  FIC: 0.75
Escherichia coli [53]
  FIC: 0.07
Klebsiella aerogenes [54]
  FIC: 0.14
[55]
  Activity: Non-Toxic
